From patent publication US7902254B1, “Method for treating conditions mediated by PPAR using macelignan” (Newtree Co., Ltd., priority 2005, dated 2011)

What was measured:
human PPARα = molecular target: T1, human PPARα (Homo sapiens, UniProt Q07869); assay: PPARα activation, PPRE-controlled luciferase reporter in transfected COS-7 cells; assay type: cell-based; settings: 25 μM, 24 hours, control 0.01% DMSO
T1 construct: expressed in transfected cells; host or cells: COS-7 monkey kidney cells (ATCC CRL-1651)
T1 sequence (Q07869 192-468 limits assumed): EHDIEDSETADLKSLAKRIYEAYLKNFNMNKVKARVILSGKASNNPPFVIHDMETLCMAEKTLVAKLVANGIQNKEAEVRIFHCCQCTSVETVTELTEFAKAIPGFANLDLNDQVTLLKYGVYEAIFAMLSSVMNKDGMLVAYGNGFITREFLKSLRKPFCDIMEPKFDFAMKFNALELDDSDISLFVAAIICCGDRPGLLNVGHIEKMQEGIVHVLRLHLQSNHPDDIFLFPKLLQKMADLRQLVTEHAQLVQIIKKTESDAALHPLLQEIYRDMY
Procedure: To investigate whether macelignan acts as a ligand of PPAR or not, it was tested according to known method (Cell, 68: 879-887, 1992; J. Biol. Chem., 272: 25252-25259, 1997) using a plasmid expressing PPAR and a vector having PPRE-controlled luciferase genes.
Activation of luciferase expression was measured by transfecting COS-7 monkey kidney cells (ATCC CRL-1651) with the PPARα plasmid and pFR-luciferase vector (Stratagene, USA), and then by treating the transfected cells with macelignan isolated from Example 1 for 24 hours. The PPARα plasmid was obtained by isolating polynucleotide encoding the amino acid sequence of amino acids […] (i.e. PPARα ligand-bound domain of the total amino acid sequence of human PPARα (Genbank Acession No. S74349)) with the primers of SEQ ID NO: 1 ([…]) and SEQ ID NO: 2 (TGGGGTACCTGGCTGAT) by RT-PCR. Then, the polynucleotide was cloned between the restriction enzyme sites of BamHI and KpnI of pFA vector (Stratagene, USA). Herein, mRNA used as the template in RT-PCR was obtained by separating the total RNA in cultured Hep G2 (ATCC HB-8065) human liver cells by using TRIZOL (Invitrogen, USA). RT-PCR was performed by synthesizing cDNA using reverse transcriptase at 42° C. for 60 minutes, and 30 cycles of 1 minute at 95° C., 30 seconds at 54° C. and 2 minutes at 72° C. using Taq polymerase. At this time, the test groups treated with different concentrations (1, 5, 10 and 25 μM) of macelignan according to the present invention were compared to the control treated with 0.01% DMSO, and to the groups treated with different concentrations (1, 5, 10 and 25 μM) of Wy-14643 (Sigma, USA), a compound known as a PPARα ligand.

[1] = tested on: obesity/diabetes mice (db/db mice); assay: Anti-diabetes effect in obesity/diabetes mouse model; assay type: in vivo; settings: 10 mg/kg oral; for OGTT blood sugar: 12th day
Excerpt: A mouse (db/db mouse; The Jackson Laboratory, USA) used in the present invention as an obesity/diabetes model is deficient in leptin genes and cannot control its appetite, and thus takes an excessive amount of food continuously. […] Thus, it can be a typical model of obesity and metabolic diseases. Additionally, it has a higher blood sugar level and can be a typical model of non-insulin-dependent diabetes mellitus. To investigate the effect of preventing and treating diabetes of macelignan, seven mice of 10 week-aged obesity/diabetes mice (db/db mice) were used per test group. To the test groups, macelignan suspended in 0.25% carboxymethyl cellulose was orally administered with the dose of 5 mg/kg (body weight), 10 mg/kg (body weight) and 25 mg/kg (body weight), once per day at a predetermined time, for 14 days. As a control, 0.25% carboxymethyl cellulose was orally administered alone to normal mice in the same dose as administered to the test group. As another control, 0.25% carboxymethyl cellulose was orally administered alone to obesity/diabetes mice in the same dose as administered to the test group. As still another control, 10 mg/kg (body weight) of troglitazone was orally administered. Blood sugar levels of the obesity/diabetes mice were determined from six days before the administration, once per three days. On the 12th day after the oral administration, the test group and the controls were subjected to the Oral Glucose Tolerance Test (OGTT). For this test, obesity/diabetes mice in the test group and the controls were fasted for at least 18 hours, glucose was orally administered to the mice in a dose of 3 g/kg (body weight), and then variations in the blood sugar were measured at 0 minutes, 30 minutes, 60 minutes and 120 minutes after the glucose administration. Additionally, on the 14th day of the oral administration, the final blood sugar level, insulin content in blood (mouse insulin ELISA Kit, Linco Research, o. EZRMI-BK, USA) and adiponectin content in blood (Adiponectin Quantikine ELISA Kit, R&D systems, No. MRP300, USA) were analyzed.

[2] = tested on: obesity/diabetes mice (db/db mice); assay: Effect upon hyperlipidemia and cardiovascular diseases in obesity/diabetes mouse model; assay type: in vivo; settings: 10 mg/kg oral, 14 days
Procedure: To investigate effects of macelignan upon the treatment of hyperlipidemia and cardiovascular diseases, seven mice of 10 week-aged obesity/diabetes mice (db/db mice) were used per test group. To the test groups, macelignan suspended in 0.25% carboxymethyl cellulose was orally administered in an administration dose of 5 mg/kg (body weight), 10 mg/kg (body weight) and 25 mg/kg (body weight), once per day at a predetermined time, for 14 days. As a control, 0.25% carboxymethyl cellulose was orally administered alone to normal mice in the same dose as administered to the test group. As another control, 0.25% carboxymethyl cellulose was orally administered alone to obesity/diabetes mice in the same dose as administered to the test group. As still another control, 10 mg/kg (body weight) of troglitazone was orally administered. Fourteen days after the administration, triglyceride concentration in blood (triglyceride measuring kit, Wako, Japan), free fatty acid concentration in blood (free fatty acid measuring kit, Wako, Japan), total cholesterol content in blood (ASAN T-CHO-Lq Reagents, Asan Pharmaceutical Co. Ltd., Korea), HDL-cholesterol content in blood (ASAN HDL-Cholesterol, Asan Pharmaceutical Co. Ltd., Korea), IL-6 content in blood (IL-6 Quantikine ELISA, R&D systems, USA) and TNF-α content in blood were measured for the test groups and the controls.

luciferase activity higher than the control (PPARα) (human PPARα)	SMILES	OGTT blood sugar ([1]; 0 min. after glucose 3 g/kg) [mg/dL]	Adiponectin concentration in blood ([1]; 14th day, db/db mice) [ng/mL]	Insulin concentration in blood ([1]; 14th day, db/db mice) [ng/mL]	OGTT blood sugar ([1]; 30 mins. after glucose 3 g/kg) [mg/dL]	OGTT blood sugar ([1]; 60 mins. after glucose 3 g/kg) [mg/dL]	OGTT blood sugar ([1]; 120 mins. after glucose 3 g/kg) [mg/dL]	Free fatty acid in blood [2] [mEq/l]	HDL-cholesterol in blood [2] [mg/dL]	IL-6 in blood [2] [pg/mL]	TNF-α in blood [2] [pg/mL]	Total cholesterol in blood [2] [mg/dL]	Triglyceride in blood [2] [mg/dL]
about 16 times	Cc1cccc(Nc2cc(Cl)nc(SCC(=O)O)n2)c1C [Wy-14643, reference compound]												
	Cc1c(C)c2c(c(C)c1O)CCC(C)(COc1ccc(CC3SC(=O)NC3=O)cc1)O2 (stereo not shown) [troglitazone, reference compound]	303.43 ± 37.83	6682.33 ± 250.05	18.57 ± 5.88	610.57 ± 76.21	523.70 ± 17.10	456.41 ± 54.69	1.22 ± 0.27	43.9 ± 6.34	10.24 ± 3.60	30.49 ± 13.18	134 ± 34.9	112.57 ± 57.47
